In patent US20060154990A1, “Use of MEK inhibitors in treating abnormal cell growth” (AGOURON PHARMACEUTICALS, INC., priority 2004, published 2006):

Tests used:
Type in all cases: in vivo, mice
[1] = tested on: MiaPaCa-2 pancreatic xenograft; assay: Antitumor activity in MiaPaCa-2 tumor model; settings: oral 25 mg/kg once a day for 14 days
[2] = tested on: H23 NSCL xenograft; assay: Antitumor activity in H23 tumor model; settings: oral 25 mg/kg once a day for 14 days
[3] = tested on: pERK in BxPC-3 tumors; assay: Tumor pERK inhibition and PK-PD in BxPC-3 xenograft; settings: BxPC-3 tumor, 25 mg/kg oral

Structure (SMILES): O=C(NOC[C@H](O)CO)c1ccc(F)c(F)c1Nc1ccc(I)cc1F [Compound 1, N-[(R)-2,3-dihydroxy-propoxy]-3,4-difluoro-2-(2-fluoro-4-iodo-phenylamino)-benzamide]
- CR (complete responder) [1]: 1/9
- PR (partial responder) [1]: 0/9
- T − C [1]: 16.8 days
- Tumor Free [1]: 0/9
- CR (complete responder) [2]: 0/8
- PR (partial responder) [2]: 1/8
- T − C [2]: 13.9 days
- Tumor Free [2]: 0/8
- inhibition of pERK expression 24 hours after dosing [3]: 23%
